Measured values as given in ChEMBL document CHEMBL1136596, “Four novel bis-(naphtho-gamma-pyrones) isolated from Fusarium species as inhibitors of HIV-1 integrase” (Bioorg Med Chem Lett, 2003).

How the values were obtained:
[1] = target: T1, Human immunodeficiency virus type 1 integrase (Human immunodeficiency virus 1, UniProt Q7ZJM1); test: Inhibition of HIV-1 integrase in strand transfer assay
[2] = target: T1, Human immunodeficiency virus type 1 integrase; test: Inhibition of HIV-1 integrase in coupled transfer assay
[3] = system: Human immunodeficiency virus 1; test: Viral protection was determined in a 24 hr HIV-1 viral infectivity assay; format: functional, organism-based

T1 sequence (Q7ZJM1 whole entry): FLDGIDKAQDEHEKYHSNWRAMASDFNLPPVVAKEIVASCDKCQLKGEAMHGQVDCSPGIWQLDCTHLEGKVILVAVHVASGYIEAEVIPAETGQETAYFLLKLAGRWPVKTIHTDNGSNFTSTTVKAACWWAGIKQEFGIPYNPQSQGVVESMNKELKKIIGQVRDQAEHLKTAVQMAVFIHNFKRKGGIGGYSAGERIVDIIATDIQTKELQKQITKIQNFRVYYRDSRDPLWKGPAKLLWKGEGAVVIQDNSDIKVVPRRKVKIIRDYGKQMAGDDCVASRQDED

Compound | IC50 [1] [µM] | IC50 [2] [µM] | IC50 [3] [µM] | IC50 ([3]; Human immunodeficiency virus 1, 24 h) [µM]
COc1cc(O)c2c(OC)c3c(cc2c1-c1c(OC)cc(OC)c2c(OC)c4c(cc12)OC(C)C(C)C4=O)OC(C)C(C)C3=O (configuration not stated) | > 100 | 40 |  | 
CC1Oc2cc3c(-c4c(O)cc(O)c5c(O)c6c(cc45)OC(C)C(C)C6=O)c(O)cc(O)c3c(O)c2C(=O)C1C (stereo in doubt; form 2) | 12 | 2 | 2 | 
CC(=O)Oc1cc(OC(C)=O)c2c(OC(C)=O)c3c(cc2c1-c1c(OC(C)=O)cc(OC(C)=O)c2c(OC(C)=O)c4c(cc12)OC(C)C(C)C4=O)OC(C)C(C)C3=O (configuration not stated) | > 100 | 50 |  | 
COc1cc(OC)c2c(OC)c3c(cc2c1-c1c(OC)cc(OC)c2c(OC)c4c(cc12)OC(C)C(C)C4=O)OC(C)C(C)C3=O (configuration not stated) | > 100 | 60 |  | 
CC1Oc2cc3c(-c4c(O)cc(O)c5c(O)c6c(cc45)OC(C)C(C)C6=O)c(O)cc(O)c3c(O)c2C(=O)C1C (stereo in doubt; form 1) | 12 | 2 |  | 3

Continued, in another order:

IC50 [1] [µM] | IC50 [2] [µM] | Compound | IC50 [3] [µM] | IC50 ([3]; Human immunodeficiency virus 1, 24 h) [µM]
> 100 | 40 | COc1cc(O)c2c(O)c3c(cc2c1-c1c(OC)cc(OC)c2c(OC)c4c(cc12)OC(C)C(C)C4=O)OC(C)C(C)C3=O (stereo in doubt; 9e) |  | 
9 | 3 | C[C@@H]1Oc2cc3c(-c4c(O)cc(O)c5c(O)c6c(cc45)O[C@H](C)[C@@H](C)C(=O)O6)c(O)cc(O)c3c(O)c2C(=O)[C@@H]1C |  | 
> 100 | 80 | COc1cc(O)c2c(O)c3c(cc2c1-c1c(OC)cc(OC)c2c(OC)c4c(cc12)OC(C)C(C)C4=O)OC(C)C(C)C3=O (stereo in doubt; 9d) |  | 
> 100 | 8 | COc1cc(O)c2c(OC)c3c(cc2c1-c1c(O)cc(OC)c2c(OC)c4c(cc12)OC(C)C(C)C4=O)OC(C)C(C)C3=O (configuration not stated) |  | 
4 | 1 | Cc1oc2cc3c(-c4c(O)cc(O)c5c(O)c6c(cc45)O[C@H](C)[C@H](C)C6=O)c(O)cc(O)c3c(O)c2c(=O)c1C |  | 
